Measurements reported in ChEMBL document CHEMBL3745662, “Preliminary investigation of 6,7-dihydropyrazolo[1,5-a]pyrazin-4-one derivatives as a novel series of mGlu5 receptor positive allosteric modulators with efficacy in preclinical models of schizophrenia” (Bioorg Med Chem Lett, 2016).
Converted amounts (≈) assume the structure as drawn. Each block holds one compound with its values, some of them ahead of it. The source made the active and inactive calls. The rule behind the calls is not given here.

Assays:
[1] = biological target: T1, Metabotropic glutamate receptor 5 (Homo sapiens, UniProt P41594); assay: Positive allosteric modulation of human mGlu5 expressed in HEK293 cells assessed as glutamate-induced calcium mobilization; format: functional, cell-based; details: read-out: EC50
Target sequence in this assay (P41594 whole entry): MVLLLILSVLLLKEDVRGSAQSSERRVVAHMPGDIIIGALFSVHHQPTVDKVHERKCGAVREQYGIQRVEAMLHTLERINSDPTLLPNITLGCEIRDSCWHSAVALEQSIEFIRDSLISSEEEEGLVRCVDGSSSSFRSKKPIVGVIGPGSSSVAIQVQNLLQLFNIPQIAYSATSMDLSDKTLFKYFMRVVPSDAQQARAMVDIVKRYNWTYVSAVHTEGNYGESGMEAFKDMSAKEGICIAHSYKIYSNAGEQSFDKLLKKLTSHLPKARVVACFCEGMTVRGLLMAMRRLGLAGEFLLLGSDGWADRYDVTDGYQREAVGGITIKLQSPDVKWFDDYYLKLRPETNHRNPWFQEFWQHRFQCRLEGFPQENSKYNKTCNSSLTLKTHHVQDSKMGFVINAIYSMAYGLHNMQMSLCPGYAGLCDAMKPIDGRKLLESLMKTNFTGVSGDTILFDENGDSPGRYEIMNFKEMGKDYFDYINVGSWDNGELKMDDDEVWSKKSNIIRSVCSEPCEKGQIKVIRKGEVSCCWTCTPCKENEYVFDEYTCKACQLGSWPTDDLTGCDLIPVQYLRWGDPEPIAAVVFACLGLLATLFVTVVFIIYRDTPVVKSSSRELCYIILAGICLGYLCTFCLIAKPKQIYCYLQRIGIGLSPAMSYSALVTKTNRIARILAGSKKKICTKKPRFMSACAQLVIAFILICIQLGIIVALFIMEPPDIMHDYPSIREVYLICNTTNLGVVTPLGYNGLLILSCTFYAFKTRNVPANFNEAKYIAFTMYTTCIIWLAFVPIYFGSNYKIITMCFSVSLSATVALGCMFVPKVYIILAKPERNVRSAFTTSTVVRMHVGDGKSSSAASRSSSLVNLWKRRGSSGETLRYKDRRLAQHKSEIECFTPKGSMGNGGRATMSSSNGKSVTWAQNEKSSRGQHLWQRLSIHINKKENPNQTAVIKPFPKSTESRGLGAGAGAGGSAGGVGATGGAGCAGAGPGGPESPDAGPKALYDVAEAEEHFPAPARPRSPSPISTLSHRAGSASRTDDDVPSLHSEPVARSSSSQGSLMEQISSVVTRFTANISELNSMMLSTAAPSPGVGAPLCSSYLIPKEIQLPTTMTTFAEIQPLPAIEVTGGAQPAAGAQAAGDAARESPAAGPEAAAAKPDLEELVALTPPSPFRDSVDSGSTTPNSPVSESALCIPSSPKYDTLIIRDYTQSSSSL

[2] = biological target: T1, Metabotropic glutamate receptor 5; assay: Positive allosteric modulation of human mGlu5 expressed in HEK293 cells assessed as glutamate-induced calcium mobilization relative to glutamate; format: functional, cell-based
Target sequence in this assay (P41594 21-1212 limits assumed): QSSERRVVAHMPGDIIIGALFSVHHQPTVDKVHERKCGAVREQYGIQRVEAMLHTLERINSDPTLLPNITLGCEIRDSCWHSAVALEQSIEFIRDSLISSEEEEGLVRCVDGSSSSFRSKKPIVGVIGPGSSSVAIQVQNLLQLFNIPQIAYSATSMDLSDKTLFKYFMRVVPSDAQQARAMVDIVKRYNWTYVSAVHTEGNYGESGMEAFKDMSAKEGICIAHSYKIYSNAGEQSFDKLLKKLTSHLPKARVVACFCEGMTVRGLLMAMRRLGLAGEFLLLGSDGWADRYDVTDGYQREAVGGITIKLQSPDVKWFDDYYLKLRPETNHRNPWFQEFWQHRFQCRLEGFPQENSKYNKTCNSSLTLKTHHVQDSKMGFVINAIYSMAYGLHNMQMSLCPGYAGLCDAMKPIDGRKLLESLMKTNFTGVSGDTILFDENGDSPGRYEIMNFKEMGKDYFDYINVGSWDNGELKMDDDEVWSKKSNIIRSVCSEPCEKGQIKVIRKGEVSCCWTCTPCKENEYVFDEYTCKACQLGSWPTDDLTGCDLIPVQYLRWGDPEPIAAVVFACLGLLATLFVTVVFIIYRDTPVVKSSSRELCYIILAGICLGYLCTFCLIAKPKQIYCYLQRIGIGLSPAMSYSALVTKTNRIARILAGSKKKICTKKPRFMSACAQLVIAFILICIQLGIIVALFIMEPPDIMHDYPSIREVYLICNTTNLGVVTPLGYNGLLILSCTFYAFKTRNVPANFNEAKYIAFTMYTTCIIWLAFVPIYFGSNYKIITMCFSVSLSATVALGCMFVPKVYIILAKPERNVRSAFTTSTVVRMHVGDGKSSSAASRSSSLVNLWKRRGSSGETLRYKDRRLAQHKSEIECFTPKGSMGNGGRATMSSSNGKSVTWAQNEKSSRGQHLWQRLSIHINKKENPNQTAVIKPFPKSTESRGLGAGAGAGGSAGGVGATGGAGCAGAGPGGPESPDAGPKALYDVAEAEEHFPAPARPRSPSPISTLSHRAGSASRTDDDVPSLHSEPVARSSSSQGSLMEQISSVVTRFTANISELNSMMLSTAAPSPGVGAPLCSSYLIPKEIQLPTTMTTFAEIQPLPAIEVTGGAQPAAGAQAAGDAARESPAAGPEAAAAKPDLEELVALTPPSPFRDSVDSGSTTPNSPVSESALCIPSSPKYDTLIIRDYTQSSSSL

[3] = biological target: Metabotropic glutamate receptor 3 (Homo sapiens, UniProt Q14832); assay: Antagonist activity at human mGlu3 expressed in HEK293 cells assessed as inhibition of glutamate-induced calcium mobilization; format: functional, cell-based
Chain of Metabotropic glutamate receptor 3 (Q14832 whole entry): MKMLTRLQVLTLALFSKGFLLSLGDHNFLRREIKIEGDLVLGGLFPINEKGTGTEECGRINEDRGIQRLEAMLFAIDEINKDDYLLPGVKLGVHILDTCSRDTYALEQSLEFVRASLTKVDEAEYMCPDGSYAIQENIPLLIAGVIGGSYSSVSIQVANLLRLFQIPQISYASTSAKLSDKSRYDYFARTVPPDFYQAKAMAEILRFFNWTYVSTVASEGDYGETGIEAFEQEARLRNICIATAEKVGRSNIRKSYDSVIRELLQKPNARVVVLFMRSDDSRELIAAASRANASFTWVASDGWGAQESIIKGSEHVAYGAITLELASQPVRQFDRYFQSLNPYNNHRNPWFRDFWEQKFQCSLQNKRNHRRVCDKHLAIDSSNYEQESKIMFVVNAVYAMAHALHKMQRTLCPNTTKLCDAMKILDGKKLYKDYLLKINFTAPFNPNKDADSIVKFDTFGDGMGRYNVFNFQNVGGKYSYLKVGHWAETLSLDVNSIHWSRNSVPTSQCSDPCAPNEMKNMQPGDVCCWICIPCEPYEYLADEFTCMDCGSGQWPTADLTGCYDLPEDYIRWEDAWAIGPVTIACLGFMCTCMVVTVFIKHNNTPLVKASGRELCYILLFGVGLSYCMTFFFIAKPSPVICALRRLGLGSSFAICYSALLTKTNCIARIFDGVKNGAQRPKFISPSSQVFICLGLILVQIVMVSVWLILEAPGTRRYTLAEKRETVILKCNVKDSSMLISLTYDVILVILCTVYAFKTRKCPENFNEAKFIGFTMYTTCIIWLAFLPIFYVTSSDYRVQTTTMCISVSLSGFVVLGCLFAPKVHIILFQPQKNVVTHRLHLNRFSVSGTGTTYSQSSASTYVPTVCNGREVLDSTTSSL

[4] = biological target: Metabotropic glutamate receptor 1 (Homo sapiens, UniProt Q13255); assay: Positive allosteric modulation of human mGlu1 receptor expressed in HEK293 cells assessed as calcium mobilization by fluorescence analysis; format: functional, cell-based
[5] = biological target: Metabotropic glutamate receptor 2 (Homo sapiens, UniProt Q14416); assay: Positive allosteric modulation of human mGlu2 receptor expressed in HEK293 cells assessed as calcium mobilization by fluorescence analysis; format: functional, cell-based
[6] = biological target: Metabotropic glutamate receptor 7 (Homo sapiens, UniProt Q14831); assay: Positive allosteric modulation of human mGlu7 receptor expressed in HEK293 cells assessed as calcium mobilization by fluorescence analysis; format: functional, cell-based
[7] = biological target: Metabotropic glutamate receptor 8 (Homo sapiens, UniProt O00222); assay: Positive allosteric modulation of human mGlu8 receptor expressed in HEK293 cells assessed as calcium mobilization by fluorescence analysis; format: functional, cell-based
[8] = biological target: T2, Metabotropic glutamate receptor 4 (Homo sapiens, UniProt Q14833); assay: Positive allosteric modulation of human mGlu4 receptor expressed in HEK293 cells assessed as calcium mobilization by fluorescence analysis; format: functional, cell-based
T2 sequence (Q14833 whole entry): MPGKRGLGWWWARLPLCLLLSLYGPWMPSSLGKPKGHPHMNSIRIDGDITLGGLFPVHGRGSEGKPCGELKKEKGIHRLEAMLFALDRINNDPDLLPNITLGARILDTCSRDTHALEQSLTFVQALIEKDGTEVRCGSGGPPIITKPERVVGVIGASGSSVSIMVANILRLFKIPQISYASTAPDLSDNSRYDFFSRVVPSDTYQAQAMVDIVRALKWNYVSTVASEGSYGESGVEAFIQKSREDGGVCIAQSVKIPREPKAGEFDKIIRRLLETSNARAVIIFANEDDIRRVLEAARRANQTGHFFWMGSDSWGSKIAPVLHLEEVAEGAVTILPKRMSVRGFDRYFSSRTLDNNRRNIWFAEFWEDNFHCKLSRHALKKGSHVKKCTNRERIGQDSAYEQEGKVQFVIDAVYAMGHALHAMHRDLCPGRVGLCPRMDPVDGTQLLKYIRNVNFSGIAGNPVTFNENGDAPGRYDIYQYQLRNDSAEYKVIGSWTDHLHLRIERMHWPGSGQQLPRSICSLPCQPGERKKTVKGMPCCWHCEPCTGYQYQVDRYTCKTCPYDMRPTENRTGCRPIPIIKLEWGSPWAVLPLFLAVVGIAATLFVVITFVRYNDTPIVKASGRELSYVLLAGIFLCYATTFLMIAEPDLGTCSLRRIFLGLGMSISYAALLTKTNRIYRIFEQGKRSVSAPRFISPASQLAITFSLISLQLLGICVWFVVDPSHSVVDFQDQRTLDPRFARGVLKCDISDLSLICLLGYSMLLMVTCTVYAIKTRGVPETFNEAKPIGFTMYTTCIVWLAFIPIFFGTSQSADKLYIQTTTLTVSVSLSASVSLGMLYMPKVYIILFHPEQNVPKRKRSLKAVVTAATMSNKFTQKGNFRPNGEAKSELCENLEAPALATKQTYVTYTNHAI

[9] = biological target: T2, Metabotropic glutamate receptor 4; assay: Positive allosteric modulation of human mGlu4 receptor expressed in L929sA cells assessed as calcium mobilization by fluorescence analysis; format: functional, cell-based
[10] = biological target: T2, Metabotropic glutamate receptor 4; assay: Positive allosteric modulation of human mGlu4 receptor expressed in HEK293 cells by [35S]-GTPgammaS binding assay; format: functional, cell-based
[11] = biological target: T2, Metabotropic glutamate receptor 4; assay: Positive allosteric modulation of human mGlu4 receptor expressed in L929sA cells by [35S]-GTPgammaS binding assay; format: functional, cell-based
[12] = biological target: Metabotropic glutamate receptor 6 (Rattus norvegicus, UniProt P35349); assay: Positive allosteric modulation of rat mGlu6 receptor expressed in CHO cells by [35S]-GTPgammaS binding assay; format: functional, cell-based
[13] = Percentage unbound in rat brain; format: ADME, tissue-based; details: brain tissue
Cytochrome P450 1A2 = biological target: T3, Cytochrome P450 1A2 (Homo sapiens, UniProt P05177); assay: Inhibition of CYP1A2 (unknown origin); format: ADME
T3 sequence (P05177 whole entry): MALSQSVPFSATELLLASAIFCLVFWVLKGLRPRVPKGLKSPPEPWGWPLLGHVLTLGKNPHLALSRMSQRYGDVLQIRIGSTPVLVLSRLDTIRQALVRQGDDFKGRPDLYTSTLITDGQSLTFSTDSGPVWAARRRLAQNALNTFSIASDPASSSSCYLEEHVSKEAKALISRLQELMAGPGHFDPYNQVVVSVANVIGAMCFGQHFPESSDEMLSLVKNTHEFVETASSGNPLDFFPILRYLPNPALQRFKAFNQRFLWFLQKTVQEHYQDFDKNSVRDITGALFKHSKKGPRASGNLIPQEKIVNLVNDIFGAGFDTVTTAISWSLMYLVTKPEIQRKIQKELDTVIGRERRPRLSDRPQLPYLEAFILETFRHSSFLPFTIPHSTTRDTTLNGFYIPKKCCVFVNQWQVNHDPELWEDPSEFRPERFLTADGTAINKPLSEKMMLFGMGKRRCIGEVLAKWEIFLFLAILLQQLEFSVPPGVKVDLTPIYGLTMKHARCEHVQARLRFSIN

Cytochrome P450 2C9 = Cytochrome P450 2C9 (Homo sapiens, UniProt P11712); assay: Inhibition of CYP2C9 (unknown origin); format: ADME
Cytochrome P450 2D6 = Cytochrome P450 2D6 (Homo sapiens, UniProt P10635); assay: Inhibition of CYP2D6 (unknown origin); format: ADME
Chain of Cytochrome P450 2D6 (P10635 whole entry): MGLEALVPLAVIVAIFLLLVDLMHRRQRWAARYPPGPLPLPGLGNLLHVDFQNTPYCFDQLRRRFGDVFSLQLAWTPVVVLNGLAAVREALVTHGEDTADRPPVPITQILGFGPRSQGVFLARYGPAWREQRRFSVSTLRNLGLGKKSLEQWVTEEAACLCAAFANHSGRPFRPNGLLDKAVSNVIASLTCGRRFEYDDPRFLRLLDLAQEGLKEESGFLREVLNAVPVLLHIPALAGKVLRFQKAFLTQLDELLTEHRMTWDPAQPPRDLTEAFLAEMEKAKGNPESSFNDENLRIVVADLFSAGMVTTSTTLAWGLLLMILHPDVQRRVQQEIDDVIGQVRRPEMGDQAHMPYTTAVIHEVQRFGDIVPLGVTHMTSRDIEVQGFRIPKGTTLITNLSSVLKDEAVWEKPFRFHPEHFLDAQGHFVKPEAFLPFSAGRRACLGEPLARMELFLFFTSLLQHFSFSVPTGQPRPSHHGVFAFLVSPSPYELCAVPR

Cytochrome P450 3A4 = Cytochrome P450 3A4 (Homo sapiens, UniProt P08684); assay: Inhibition of CYP3A4 (unknown origin); format: ADME
[14] = Plasma protein binding in human assessed as percentage unbound; format: ADME, cell-free
[15] = Plasma protein binding in rat assessed as percentage unbound; format: ADME, cell-free
[16] = Solubility of compound in fed state simulated intestinal fluid; format: ADME; details: simulated gi fluid
[17] = biological target: Voltage-gated inwardly rectifying potassium channel KCNH2 (Homo sapiens, UniProt Q12809); assay: Inhibition of human ERG
[18] = Inhibition of Calcium channel (unknown origin); design: species or system Homo sapiens
[19] = Inhibition of Sodium channel (unknown origin); design: species or system Homo sapiens
[20] = Plasma clearance in rat at 2.5 mg/kg, iv; format: ADME, organism-based
[21] = Volume of distribution at steady state in rat at 2.5 mg/kg, iv; format: ADME, organism-based; details: in vivo, read-out: Vdss
[22] = Half life in rat at 2.5 mg/kg, iv; format: ADME, organism-based; details: in vivo
[23] = Cmax in rat at 10 mg/kg, po; format: ADME, organism-based; design: dose 10 mg/kg, route oral; details: in vivo
[24] = AUC (0 to infinity) in rat at 10 mg/kg, po; format: ADME, organism-based; design: dose 10 mg/kg, route oral, time infinity; details: in vivo
[25] = Oral bioavailability in rat at 10 mg/kg; format: ADME, organism-based; details: in vivo
[26] = Plasma clearance in dog at 0.5 mg/kg, iv; format: ADME, organism-based, Canis lupus familiaris
[27] = Volume of distribution at steady state in dog at 0.5 mg/kg, iv; format: ADME, organism-based, Canis lupus familiaris; details: in vivo, read-out: Vdss
[28] = Half life in dog at 0.5 mg/kg, iv; format: ADME, organism-based, Canis lupus familiaris; details: in vivo
[29] = Cmax in dog at 5 mg/kg, po; format: ADME, organism-based, Canis lupus familiaris; design: dose 5 mg/kg, route oral; details: in vivo
[30] = AUC (0 to infinity) in dog at 5 mg/kg, po; format: ADME, organism-based, Canis lupus familiaris; design: dose 5 mg/kg, time infinity, route oral; details: in vivo
[31] = Oral bioavailability in dog at 5 mg/kg; format: ADME, organism-based, Canis lupus familiaris; details: in vivo
Rattus norvegicus [32] = assay: Antipsychotic-like activity in po dosed Sprague-Dawley rat assessed as reversal of amphetamine-induced hyperlocomotion; format: functional
Rattus norvegicus [33] = assay: Antipsychotic-like activity in dosed Sprague-Dawley rat assessed as full reversal of amphetamine-induced hyperlocomotion at 100 mg/kg, po; format: functional, organism-based
Rattus norvegicus [34] = assay: Procognitive activity in po dosed Sprague-Dawley rat assessed as enhancement of contexual fear conditioning acquistion treated for 30 mins prior to conditioning measured after 24 hrs; format: functional
Rattus norvegicus [35] = assay: Toxicity in Sprague-Dawley rat assessed as complusive behavior at 25 to 600 mg/kg, po; format: organism-based; details: in vivo
Rattus norvegicus [36] = assay: Toxicity in Sprague-Dawley rat assessed as pedaling movements of forepaws at 25 to 600 mg/kg, po; format: organism-based; details: in vivo
Rattus norvegicus [37] = assay: Toxicity in Sprague-Dawley rat assessed as tremors at 25 to 600 mg/kg, po; format: organism-based; details: in vivo
Rattus norvegicus [38] = assay: Toxicity in Sprague-Dawley rat assessed as mortality at 600 mg/kg, po; format: organism-based; details: in vivo
[39] = biological target: Platelet-activating factor receptor (Homo sapiens) (UniProt P25105); assay: Inhibition of human PAF at 10 uM
Chain of Platelet-activating factor receptor (Homo sapiens) (P25105 whole entry): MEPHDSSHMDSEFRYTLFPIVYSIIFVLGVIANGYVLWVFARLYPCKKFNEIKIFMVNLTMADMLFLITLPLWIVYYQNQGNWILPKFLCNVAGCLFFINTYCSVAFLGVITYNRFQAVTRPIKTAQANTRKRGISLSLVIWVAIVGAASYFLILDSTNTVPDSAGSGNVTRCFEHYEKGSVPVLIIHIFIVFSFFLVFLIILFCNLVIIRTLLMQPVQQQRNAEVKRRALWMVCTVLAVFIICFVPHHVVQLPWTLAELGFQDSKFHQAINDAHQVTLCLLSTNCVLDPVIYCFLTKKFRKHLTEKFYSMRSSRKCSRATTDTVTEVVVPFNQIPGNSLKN

in vivo [40] = details: rat, po, 10 mg/kg
Description: Tmax in rat at 10 mg/kg, po

in vivo [41] = details: dog, po, 5 mg/kg

SMILES: O=C1c2cc(COc3ccccc3)nn2CCN1c1cccc(F)c1
- EC50 [1]: 130 nM
- Emax [2]: 81%

SMILES: Cc1ccc(N2CCn3nc(COc4ccccc4)cc3C2=O)cc1
- EC50 [1]: 71 nM
- Emax [2]: 65%
- EC50 [3]: 150 nM

SMILES: O=C1c2cc(COc3ccccc3)nn2CCN1c1ccc(F)cc1
- EC50 [1]: 65 nM
- Emax [2]: 79%
- EC50 [3]: 74 nM

SMILES: COc1ccc(N2CCn3nc(COc4ccccc4)cc3C2=O)cc1
- EC50 [1]: 110 nM
- Emax [2]: 58%

- EC50 [1]: 2340 nM
- Emax [2]: 65%
SMILES: O=C1c2nc(COc3ccccc3)nn2CCN1c1ccc(F)cc1

SMILES: O=C1c2cc(COc3ccccc3)nn2CCN1c1ccc(F)c(F)c1
- EC50 [1]: 87 nM
- Emax [2]: 81%

SMILES: O=C1c2cc(COc3cccc(F)c3)nn2CCN1c1ccc(F)cn1
- EC50 [1]: 91 nM
- Emax [2]: 62%

SMILES: O=C1c2cc(COc3ccccc3)nn2CCN1c1ccccc1F
- EC50 [1]: 160 nM
- Emax [2]: 86%

- EC50 [1]: > 30000 nM
SMILES: O=C1c2cc(OCc3ccccc3)nn2CCN1c1cc(F)ccn1

SMILES: Cc1ccc(OCc2cc3n(n2)CCN(c2ccc(F)cc2)C3=O)cc1
- EC50 [1]: 300 nM
- Emax [2]: 58%

SMILES: O=C1c2cc(COc3ccc(F)cc3)nn2CCN1c1ccc(F)cc1
- EC50 [1]: 100 nM
- Emax [2]: 72%
- EC50 [3]: 34 nM

SMILES: O=C1c2cc(COc3ccccc3)nn2CCN1c1ncc(F)cn1
- EC50 [1]: 760 nM
- Emax [2]: 72%

SMILES: COc1ccc(N2CCn3nc(COc4ccccc4)cc3C2=O)nc1
- EC50 [1]: 620 nM
- Emax [2]: 74%

SMILES: O=C1c2cc(COc3ccccc3)nn2CCN1c1ccc(F)cn1
- EC50 [1]: 130 nM
- Emax [2]: 72%
- EC50 [3]: 6760 nM
- EC50 [4]: > 10000 nM
- EC50 [5]: > 10000 nM
- EC50 [6]: > 10000 nM
- EC50 [7]: > 10000 nM
- EC50 [8]: > 10000 nM
- EC50 [9]: > 10000 nM
- EC50 [10]: > 10000 nM
- EC50 [11]: > 10000 nM
- EC50 [12]: > 10000 nM
- fraction unbound [13]: 0.055
- IC50 (Cytochrome P450 1A2): ≥ 30000 nM
- IC50 (Cytochrome P450 2C9): ≥ 30000 nM
- IC50 (Cytochrome P450 2D6): ≥ 30000 nM
- IC50 (Cytochrome P450 3A4): ≥ 30000 nM
- Fu [14]: 8.2%
- Fu [15]: 6.8%
- solubility [16]: 13 µg/mL (≈ 38.4 µM)
- IC50 [17]: > 10000 nM
- IC50 [18]: > 10000 nM
- IC50 [19]: > 10000 nM
- clearance [20]: 19 mL/min/kg
- Vd [21]: 1.6 L/kg
- half-life [22]: 1.6 h
- Cmax [23]: 730 ng/mL
- AUC(0-inf) [24]: 6670 ng·h/mL
- bioavailability [25]: 88%
- clearance [26]: 25 mL/min/kg
- Vd [27]: 2.6 L/kg
- half-life [28]: 2.4 h
- Cmax [29]: 519 ng/mL
- AUC(0-inf) [30]: 1540 ng·h/mL
- bioavailability [31]: 48%
- Activity (Rattus norvegicus [32]): Dose-dependent effect
- Activity (Rattus norvegicus [33]): Active
- Activity (Rattus norvegicus [34]): Dose-dependent effect
- minimal effective dose (Rattus norvegicus [34]; read-out: MED): 0.3 mg/kg
- Activity (Rattus norvegicus [35]): Toxic
- Activity (Rattus norvegicus [36]): Toxic
- Activity (Rattus norvegicus [37]): Toxic
- Activity (Rattus norvegicus [38]): Toxic
- inhibition [39]: 57%
- Tmax (in vivo [40]): 4 h
- Tmax (in vivo [41]): 0.7 h

SMILES: O=C1c2cc(COc3ccccc3)nn2CCN1c1ccc(F)cc1F
- EC50 [1]: 100 nM
- Emax [2]: 101%
